Test results as given in ChEMBL document CHEMBL3885861, “Open TG-GATES”.

Species on record: Rattus norvegicus
Assay: Open TG-GATES - Regimen: Daily Repeat
Assay type: toxicity, organism-based, Sprague-Dawley
Parameters: regimen Daily Repeat, gender Male, age 6 weeks
Conditions: in vivo, po, 0 mg/kg, route gavage, dose level Control; for APTT / Bas / Eos / Fbg / Hb / Ht / Lym / MCH / MCHC / MCV / Mono / Neu / PT / Plat / RBC / Ret / WBC: tissue Blood; for KIDNEY_L / KIDNEY_R / KIDNEY_TOTAL: tissue Kidney; for LIVER: tissue Liver; for A/G / ALP / ALT / AST / BUN / CRE / Ca / Cl / DBIL / GLC / IP / K / LDH / Na / PL / RALB / TBIL / TC / TG / TP / gamma-GTP: tissue Plasma

Nc1nc(N)c2nc(-c3ccccc3)c(N)nc2n1
TERMINAL_BW (72 h, time 3 day): 242.6 g
APTT (72 h, time 3 day): 16.3 s
Bas (72 h, time 3 day): 0.2%
Eos (72 h, time 3 day): 1%
Fbg (72 h, time 3 day): 334.2 mg/dL
Hb (72 h, time 3 day): 13.8 g/dL
Ht (72 h, time 3 day): 40.7%
Lym (72 h, time 3 day): 78.8%
MCH (72 h, time 3 day): 20.8 pg
MCHC (72 h, time 3 day): 33.9%
MCV (72 h, time 3 day): 61.3 fL
Mono (72 h, time 3 day): 2.2%
Neu (72 h, time 3 day): 17.2%
PT (72 h, time 3 day): 13.9 s
Plat (72 h, time 3 day): 128.5 x10_4/uL
RBC (72 h, time 3 day): 664.4 x10_4/ul
Ret (72 h, time 3 day): 6.2%
WBC (72 h, time 3 day): 102.2 x10_2/uL
KIDNEY_L (72 h, time 3 day): 1.1 g
KIDNEY_R (72 h, time 3 day): 1.1 g
KIDNEY_TOTAL (72 h, time 3 day): 2.1 g
LIVER (72 h, time 3 day): 11.1 g
A/G (72 h, time 3 day): 0.9
ALP (72 h, time 3 day): 1605.2 IU/L
ALT (72 h, time 3 day): 41.4 IU/L
AST (72 h, time 3 day): 69.4 IU/L
BUN (72 h, time 3 day): 15 mg/dL
CRE (72 h, time 3 day): 0.2 mg/dL
Ca (72 h, time 3 day): 10.9 mg/dL
Cl (72 h, time 3 day): 105.2 meq/L
DBIL (72 h, time 3 day): 0.01 mg/dL
GLC (72 h, time 3 day): 166 mg/dL
IP (72 h, time 3 day): 7.7 mg/dL
K (72 h, time 3 day): 4.1 meq/L
LDH (72 h, time 3 day): 60.2 IU/L
Na (72 h, time 3 day): 142.6 meq/L
PL (72 h, time 3 day): 152.4 mg/dL
RALB (72 h, time 3 day): 2.6 g/dL
TBIL (72 h, time 3 day): 0.042 mg/dL
TC (72 h, time 3 day): 80.6 mg/dL
TG (72 h, time 3 day): 102.4 mg/dL
TP (72 h, time 3 day): 5.6 g/dL
gamma-GTP (72 h, time 3 day): 1 IU/L
TERMINAL_BW ([…], time 7 day): 286.3 g
TERMINAL_BW ([…], time 14 day): 328 g
TERMINAL_BW ([…], time 28 day): 424 g
APTT ([…], time 7 day): 18 s
Bas ([…], time 7 day): 0%
Eos ([…], time 7 day): 0.6%
Fbg ([…], time 7 day): 302.8 mg/dL
Hb ([…], time 7 day): 13.9 g/dL
Ht ([…], time 7 day): 42.9%
Lym ([…], time 7 day): 78.8%
MCH ([…], time 7 day): 20.6 pg
MCHC ([…], time 7 day): 32.5%
MCV ([…], time 7 day): 63.6 fL
Mono ([…], time 7 day): 2.6%
Neu ([…], time 7 day): 17.6%
PT ([…], time 7 day): 13.3 s
Plat ([…], time 7 day): 136.4 x10_4/uL
RBC ([…], time 7 day): 675.8 x10_4/ul
Ret ([…], time 7 day): 5.9%
WBC ([…], time 7 day): 94 x10_2/uL
APTT ([…], time 14 day): 18.4 s
Bas ([…], time 14 day): 0%
Eos ([…], time 14 day): 1%
Fbg ([…], time 14 day): 313.2 mg/dL
Hb ([…], time 14 day): 14.6 g/dL
Ht ([…], time 14 day): 44.3%
Lym ([…], time 14 day): 78.4%
MCH ([…], time 14 day): 19.5 pg
MCHC ([…], time 14 day): 33%
MCV ([…], time 14 day): 59.2 fL
Mono ([…], time 14 day): 2.6%
Neu ([…], time 14 day): 18%
PT ([…], time 14 day): 13.2 s
Plat ([…], time 14 day): 132.7 x10_4/uL
RBC ([…], time 14 day): 748 x10_4/ul
Ret ([…], time 14 day): 3.7%
WBC ([…], time 14 day): 91.5 x10_2/uL
APTT ([…], time 28 day): 18 s
Bas ([…], time 28 day): 0.6%
Eos ([…], time 28 day): 1.2%
Fbg ([…], time 28 day): 294.6 mg/dL
Hb ([…], time 28 day): 15.4 g/dL
Ht ([…], time 28 day): 46.3%
Lym ([…], time 28 day): 82.6%
MCH ([…], time 28 day): 18.8 pg
MCHC ([…], time 28 day): 33.3%
MCV ([…], time 28 day): 56.5 fL
Mono ([…], time 28 day): 2.2%
Neu ([…], time 28 day): 13.6%
PT ([…], time 28 day): 13 s
Plat ([…], time 28 day): 111.3 x10_4/uL
RBC ([…], time 28 day): 819.6 x10_4/ul
Ret ([…], time 28 day): 2.3%
WBC ([…], time 28 day): 87 x10_2/uL
KIDNEY_L ([…], time 7 day): 1.2 g
KIDNEY_R ([…], time 7 day): 1.2 g
KIDNEY_TOTAL ([…], time 7 day): 2.3 g
KIDNEY_L ([…], time 14 day): 1.2 g
KIDNEY_R ([…], time 14 day): 1.2 g
KIDNEY_TOTAL ([…], time 14 day): 2.4 g
KIDNEY_L ([…], time 28 day): 1.5 g
KIDNEY_R ([…], time 28 day): 1.4 g
KIDNEY_TOTAL ([…], time 28 day): 2.9 g
LIVER ([…], time 7 day): 13.7 g
LIVER ([…], time 14 day): 13.8 g
LIVER ([…], time 28 day): 16.7 g
A/G ([…], time 7 day): 0.9
ALP ([…], time 7 day): 1612.4 IU/L
ALT ([…], time 7 day): 43.2 IU/L
AST ([…], time 7 day): 63.4 IU/L
BUN ([…], time 7 day): 16.2 mg/dL
CRE ([…], time 7 day): 0.2 mg/dL
Ca ([…], time 7 day): 11.1 mg/dL
Cl ([…], time 7 day): 104.4 meq/L
DBIL ([…], time 7 day): 0.014 mg/dL
GLC ([…], time 7 day): 186.2 mg/dL
IP ([…], time 7 day): 7.7 mg/dL
K ([…], time 7 day): 4.3 meq/L
LDH ([…], time 7 day): 63.4 IU/L
Na ([…], time 7 day): 142.4 meq/L
PL ([…], time 7 day): 179.4 mg/dL
RALB ([…], time 7 day): 2.7 g/dL
TBIL ([…], time 7 day): 0.076 mg/dL
TC ([…], time 7 day): 90.2 mg/dL
TG ([…], time 7 day): 133 mg/dL
TP ([…], time 7 day): 5.8 g/dL
gamma-GTP ([…], time 7 day): 1 IU/L
A/G ([…], time 14 day): 0.8
ALP ([…], time 14 day): 1497.6 IU/L
ALT ([…], time 14 day): 34 IU/L
AST ([…], time 14 day): 60 IU/L
BUN ([…], time 14 day): 14.6 mg/dL
CRE ([…], time 14 day): 0.2 mg/dL
Ca ([…], time 14 day): 10.6 mg/dL
Cl ([…], time 14 day): 105.6 meq/L
DBIL ([…], time 14 day): 0.01 mg/dL
GLC ([…], time 14 day): 191.6 mg/dL
IP ([…], time 14 day): 7.5 mg/dL
K ([…], time 14 day): 4 meq/L
LDH ([…], time 14 day): 60.4 IU/L
Na ([…], time 14 day): 143 meq/L
PL ([…], time 14 day): 154.4 mg/dL
RALB ([…], time 14 day): 2.7 g/dL
TBIL ([…], time 14 day): 0.068 mg/dL
TC ([…], time 14 day): 72.8 mg/dL
TG ([…], time 14 day): 141.6 mg/dL
TP ([…], time 14 day): 5.9 g/dL
gamma-GTP ([…], time 14 day): 1 IU/L
A/G ([…], time 28 day): 0.8
ALP ([…], time 28 day): 1077.6 IU/L
ALT ([…], time 28 day): 40 IU/L
AST ([…], time 28 day): 67.4 IU/L
BUN ([…], time 28 day): 16 mg/dL
CRE ([…], time 28 day): 0.2 mg/dL
Ca ([…], time 28 day): 10.8 mg/dL
Cl ([…], time 28 day): 104.2 meq/L
DBIL ([…], time 28 day): 0.012 mg/dL
GLC ([…], time 28 day): 194.8 mg/dL
IP ([…], time 28 day): 6.5 mg/dL
K ([…], time 28 day): 3.8 meq/L
LDH ([…], time 28 day): 76.4 IU/L
Na ([…], time 28 day): 143.4 meq/L
PL ([…], time 28 day): 144.8 mg/dL
RALB ([…], time 28 day): 2.8 g/dL
TBIL ([…], time 28 day): 0.066 mg/dL
TC ([…], time 28 day): 68.2 mg/dL
TG ([…], time 28 day): 149.6 mg/dL
TP ([…], time 28 day): 6.3 g/dL
gamma-GTP ([…], time 28 day): 1 IU/L
